In patent US12358948B2, “Neurotensinergic agonists and methods of using same preventing or treating pain” (priority 2019, dated 2025):
“And” between values parts separate entries of the source, which are not always exact repeats. Equal entries are not always repeated. Where a SMILES comes first, the peptide text is derived from it. Bridges are numbered along the chain shown (N, C = ends). [ ]: non-standard residue; d: D form. Ala(cPent) = N[C@@H](CC1CCCC1)C(=O)O; AllylGly = C=CC[C@H](N)C(=O)O

Legend:
[1] = molecular target: T1, hNTS1 receptor (Homo sapiens, UniProt P30989); test: Competitive radioligand binding assay on the hNTS1 receptor; conditions: IC50 NTS1, displacement of 125I-[Tyr3]-NT, membranes of CHO-K1 cells expressing hNTS1
T1 construct: membranes prepared from them
T1 sequence (P30989 whole entry): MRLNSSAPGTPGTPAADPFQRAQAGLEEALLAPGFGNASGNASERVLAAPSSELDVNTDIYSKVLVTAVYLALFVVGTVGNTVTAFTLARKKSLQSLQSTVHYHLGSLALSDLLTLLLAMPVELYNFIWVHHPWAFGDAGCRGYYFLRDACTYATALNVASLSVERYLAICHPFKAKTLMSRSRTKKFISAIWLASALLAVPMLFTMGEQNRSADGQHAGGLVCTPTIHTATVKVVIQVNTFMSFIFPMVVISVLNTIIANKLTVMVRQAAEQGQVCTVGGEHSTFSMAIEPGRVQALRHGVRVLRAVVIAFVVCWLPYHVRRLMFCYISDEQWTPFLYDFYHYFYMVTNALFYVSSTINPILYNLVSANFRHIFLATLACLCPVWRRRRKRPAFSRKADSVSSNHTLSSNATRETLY
In short: (§1)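 Membranes from CHO-K1 cells expressing hNTS1 (15 µg, […] ¹²⁵I-[Tyr³]-NT) or 1321N1 cells expressing hNTS2 (50 µg, […] radioligand) were incubated with analogues at 10⁻¹¹–10⁻⁴ M for 60 min at 25 °C in Tris-HCl pH 7.5/0.2% BSA. Filtration and γ-counting followed; nonspecific binding was defined with 10⁻⁵ M NT(8-13), and IC50 was obtained by one-site fit.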

[2] = Blood pressure measurements after intravenous injection
Description: Mean, systolic and diastolic arterial blood pressure and a heart rate were measured through a catheter (PE 50 filled with heparinized saline) inserted in the right carotid artery and connected to a Micro-Med transducer (model TDX-300, USA) linked to a blood pressure Micro-Med analyzer (model BPA-100c). […] Blood pressure was recorded each second for up to 1000 seconds following intravenous injection. […] Data represents the mean±SEM of 4-5 rats for each condition.

[3] = system: Sprague-Dawley rats; test: Formalin test (tonic pain model), intrathecal injection; type: in vivo, rat
Description: Experiments were performed with adults male Sprague-Dawley rats, weighing 225-300 g (Charles River laboratories, St Constant, Canada). Rats were housed two per cage on Aspen shavings in a quiet room and kept on a 12 h light/dark cycle and allowed ad libitum access to food and water. The experimental procedures in this study were approved by the Animal Care Committee of Université de Sherbrooke and were in accordance with policies and directives of the Canadian Council on Animal Care.
Rats were lightly anesthetized with isoflurane/oxygen (Baxter corporation, Mississauga, ON, Canada; 2 L/min) flow and injected intrathecally at the L5-L6 intervertebral space with concentrations ranging from 10 to 150 μg/kg of compound 34, 30 μg/kg of PD149163 or 61 nmol/kg of compounds 60, 67, 91 and 116 diluted in 0.9% saline or 0.9% saline alone.
Formalin test: The analgesic effect of compound 34 was assessed using the formalin test as a model of persistent pain. Before testing, animals were acclimatized to manipulations and to plexiglass chambers 30 min/day for three consecutive days. On test day, 5 minutes after intrathecal injection of compounds at increasing doses ranging from 30 to 150 μg/kg (FIGS. 7A-B) or 3 to 60 μg/kg (FIGS. 8A-D), the rats received a 50 μl of diluted 1.85% formaldehyde (i.e. 5% formalin; Bioshop, Burlington, Ontario) into the plantar surface of the right hind paw. […] The intraplantar injection of formalin produced the biphasic nociceptive response typical of this tonic pain model (Tjolsen et al., 1992). […] Nociceptive behavior was assessed using a weighted score as described previously (Dubuisson and Dennis 1977; Codere, 1993). […] The weighted average pain intensity score ranging from 0 to 3 was then calculated by multiplying the time spent in each category by the category weight, summing these products, and dividing by the total time in a given time interval. The pain score was thus calculated from the following formula (1T1+2T2+3T3)/180 where T1, T2, and T3 are the durations (in seconds) spent in behavioral categories 1, 2, or 3, respectively, during each 180 second block. The Area Under the Curve (AUC) was calculated during all the duration of the test (0-60 min). […]
Data are expressed as mean±standard errors of the mean (SEM). […] The % MPE for the tail-flick test and the areas under the curve for the formalin test were analyzed using a one-way ANOVA followed by a Dunnett's multiple comparisons test to compare different concentrations of compounds and saline treatment (FIGS. 2B, 4B, 7A-B and 8B-D). […]

[4] = molecular target: T2, hNTS2 receptor (Homo sapiens, UniProt O95665); test: Competitive radioligand binding assay on the hNTS2 receptor; conditions: for IC50: IC50 NTS2, displacement of 125I-[Tyr3]-NT, membranes of 1321N1 cells expressing hNTS2; for Selectivity: ratio IC50 for NTS1 : IC50 for NTS2
T2 construct: membranes prepared from them
T2 sequence (O95665 whole entry): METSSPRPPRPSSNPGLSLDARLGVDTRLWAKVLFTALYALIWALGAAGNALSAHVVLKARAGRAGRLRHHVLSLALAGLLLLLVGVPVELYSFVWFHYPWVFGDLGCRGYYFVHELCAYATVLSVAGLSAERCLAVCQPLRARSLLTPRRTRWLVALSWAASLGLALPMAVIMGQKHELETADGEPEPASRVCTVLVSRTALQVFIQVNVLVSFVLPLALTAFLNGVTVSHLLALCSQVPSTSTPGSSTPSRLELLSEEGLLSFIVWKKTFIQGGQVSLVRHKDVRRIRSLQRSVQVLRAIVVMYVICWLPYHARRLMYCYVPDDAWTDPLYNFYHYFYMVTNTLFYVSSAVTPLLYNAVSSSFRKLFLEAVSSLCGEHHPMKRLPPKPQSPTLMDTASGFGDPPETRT
In short: as §1

| SMILES | IC50 [1] | Hypotension (i.v.) ([2]; 0.01, 0.1, 1 mg/kg i.v.) | time spent in lifting ([3]; acute phase, from 60 μg/kg i.t.) | time spent in lifting ([3]; inflammatory phase, from 90 μg/kg i.t.) | IC50 [4] [µM] | Selectivity [4] | Hypotension (i.v.) ([2]; 1 mg/kg i.v.) | ED50, formalin test ([3]; AUC of pain score, acute and inflammatory phases combined, i.t.) [nmol/kg] | pain score ([3]; all tested doses (from 10 nmol/kg) i.t.) |
| --- | --- | --- | --- | --- | --- | --- | --- | --- | --- |
| CC(C)C[C@H](NC(=O)[C@H](Cc1ccc(O)cc1)NC(=O)[C@@H]1CC=CC[C@H](N)C(=O)N[C@@H](CCCCN)C(=O)N[C@@H](CCCCN)C(=O)N1)C(=O)O [compound 34, c[G(All)KKG(All)]YL] (H-[AllylGly]KK[AllylGly]YL-OH; staple 1-4) | 199 µM and 100 µM | no significant hypotension | significantly decreased | significantly decreased | 0.0596 | 3339 and 1685 |  |  |  |
| NCCCC[C@@H]1NC(=O)[C@H](CCCCN)NC(=O)[C@@H](N)CC=CC[C@@H](C(=O)N[C@@H](Cc2ccc(O)cc2)C(=O)N[C@@H](CC2CCCC2)C(=O)O)NC1=O [compound 67, c[G(All)KKG(All)]YA(cyclopentyl)] (H-[AllylGly]KK[AllylGly]Y[Ala(cPent)]-OH; staple 1-4) | > 100 µM |  |  |  | 0.00306 | >32 680 | no significant hypotension | 30 | significantly decreased |
